Laboratory results as given in patent publication US9029413B2, “Treatment of viral infections by modulation of host cell metabolic pathways” (The Trustees of Princeton University, priority 2007, dated 2015).
Entries after “also recorded” stand apart in the source; their conditions may differ. Like-named read-outs stand apart in the source and are kept apart here.

Experiments:
[1] = tested on: human cytomegalovirus (HCMV); type: cell-based
class III PI(3)K = class III PI(3)K (Homo sapiens, UniProt Q8NEB9); details: cited from earlier work
class III PI(3)K, sequence (Q8NEB9 whole entry): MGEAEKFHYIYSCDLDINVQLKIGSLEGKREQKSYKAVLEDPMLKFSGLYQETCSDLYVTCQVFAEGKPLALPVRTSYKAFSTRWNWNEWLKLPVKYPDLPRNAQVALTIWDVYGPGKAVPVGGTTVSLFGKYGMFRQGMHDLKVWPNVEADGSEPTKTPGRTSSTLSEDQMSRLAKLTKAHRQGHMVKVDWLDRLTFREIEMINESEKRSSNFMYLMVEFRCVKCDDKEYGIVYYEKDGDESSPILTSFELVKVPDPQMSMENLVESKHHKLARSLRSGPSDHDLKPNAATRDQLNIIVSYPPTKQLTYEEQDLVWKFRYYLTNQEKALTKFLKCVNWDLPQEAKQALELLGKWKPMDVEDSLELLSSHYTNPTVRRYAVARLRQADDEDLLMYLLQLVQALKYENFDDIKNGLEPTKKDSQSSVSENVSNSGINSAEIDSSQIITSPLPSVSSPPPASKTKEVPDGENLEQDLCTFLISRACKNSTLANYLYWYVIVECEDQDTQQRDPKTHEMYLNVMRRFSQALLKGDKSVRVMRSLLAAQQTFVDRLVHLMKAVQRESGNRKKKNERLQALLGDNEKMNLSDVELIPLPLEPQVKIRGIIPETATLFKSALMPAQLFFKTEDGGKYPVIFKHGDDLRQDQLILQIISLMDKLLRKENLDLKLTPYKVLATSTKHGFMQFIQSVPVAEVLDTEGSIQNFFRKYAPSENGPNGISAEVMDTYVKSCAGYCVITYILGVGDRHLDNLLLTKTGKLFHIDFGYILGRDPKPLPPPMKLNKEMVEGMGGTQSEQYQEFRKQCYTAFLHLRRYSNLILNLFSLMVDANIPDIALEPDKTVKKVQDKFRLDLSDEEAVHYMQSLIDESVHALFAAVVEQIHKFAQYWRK

HBV = details: cited from earlier work
HCV replicon = details: cited from earlier work
Dengue virus (DV) = experiment: Extracellular viral RNA from DV-infected Vero cells, real-time quantitative RT-PCR; type: cell-based; details: TOFA 20 μg/mL
Description: (§1) WNV and DV, members of the Flavivirus family of positive-strand RNA viruses, cause severe disease in humans. […] A reduction in the amount extracellular viral RNA or a delay in the accumulation of extracellular viral RNA during the drug treatment period will be indicative of anti-WNV or anti-DV activity. […] TOFA at 20 μg/mL results in ˜10-fold reduction, sometime greater, in accumulation of extracellular viral RNA. The accumulation of extracellular viral RNA is also delay compared to untreated cells.

[2] = tested on: hepatitis B virus (HBV) ayw strain; experiment: Extracellular HBV DNA from HepG2-2.2.15 cells, real-time quantitative PCR
Description: In one aspect, Compounds can be added to HepG2-2.2.15 culture to test whether Compound will reduce the production of secreted HBV from cells utilizing real time quantitative PCR (TaqMan) assay to measure HBV DNA copies. Specifically, confluent cultures of HepG2-2.2.15 cells cultured on 96-well flat-bottomed tissue culture plates and are treated with various concentration of daily doses of Compounds. HBV virion DNA in the culture medium can be assessed 24 hours after the last treatment by quantitative blot hybridization or real time quantitative PCR (TaqMan) assay. […] Lamivudine (3TC) can be used as a positive assay control.
As noted in section 5.4, HepG2-2.2.15 (Sells et al., PNAS 84, 1005-9, 1987) is a stable cell line containing the HBV ayw strain genome. Compounds blocking any step of viral replication and release can be assayed in these cells (Korba & Milman, Antiviral Res. 15:217-28, 1991). […] The medium with the ACC inhibitor is replaced every 24 hours, and media samples are removed after drug treatment for 24, 48, 72 or 96 hours and assayed for the presence of extracellular viral DNA by real-time quantitative PCR. A reduction in the amount extracellular viral DNA or a delay in its accumulation during the treatment period with the ACC inhibitor is indicative of anti-HBV activity. […] Lamivudine (3TC) is used as a positive assay control for inhibition of the production of extracellular HBV DNA (Korba & Gerin, Antivir. Res. 19:55-70, 1992).

host cell = experiment: Host cell toxicity of the TOFA and indomethacin combination (neutral red dye assay); details: combined use of TOFA and indomethacin
Description: (§2) A non-limiting example of an assay that can be performed to assess the effect of a combination of an ACC inhibitor plus Cox inhibitor on HCMV replication follows. […] In each assay, various concentrations of TOFA can be combined with various concentrations of indomethacin and assayed for their effect on virus replication. In one preferred embodiment, a physiological concentration of indomethacin is held constant as the dose of TOFA is increased. Control cultures are treated with no drug, indomethacin alone or the various concentrations of TOFA alone. […] The antiviral effect of indomethacin plus each concentration of TOFA is then compared to the activity of indomethacin alone or the various concentrations of TOFA alone.

HCMV = details: TOFA 10 μg/mL
Description: as §2

[3] = tested on: HCMV-infected fibroblasts (MRC-5 cells); experiment: Effect on the metabolome of HCMV-infected fibroblasts (LC-MS/MS); type: cell-based, human; details: TOFA 20 μg/mL for 48 h
Description: Primary fibroblasts (MRC-5 cells) were grown in DMEM (high glucose) containing 7.5% FBS and infected at a multiplicity of 3.0 plaque forming units per cell (control cells were mock infected instead of virally infected). […] Mock-infected cells were then returned to growth medium (+DMSO vehicle) for 48 h. […] Metabolites were extracted into the methanol:water and samples analyzed by LC-MS/MS for a diversity of metabolites as described herein.

coxsackie B3 virus = details: cited from earlier work
[4] = tested on: HCMV, influenza A, HIV-1, HBV or HCV; experiment: Viral replication with a combination of ACC inhibitor and HMG-CoA reductase inhibitor; type: cell-based; details: in the presence of a therapeutically effective concentration of the active form of lovastatin
Huh7 ET cells = experiment: Toxicity in Huh7 ET cultures (neutral red dye uptake); details: TOFA 10 μg/mL or 30 μg/mL
[5] = cited from earlier work
HCV RNA replicon = HCV RNA replicon luciferase (LUC) reporter assay in Huh7 ET cells
West Nile virus (WNV) = experiment: Extracellular viral RNA from WNV-infected Vero cells, real-time quantitative RT-PCR; type: cell-based; details: TOFA 20 μg/mL
Description: as §1

[6] = dose 30 μg/mL, MOI 3.0, 72 hours post infection, two independent experiments, each with its own controls
[7] = dose 60 μg/mL, MOI 3.0, 72 hours post infection

Description for host cells: The toxicity of the diverse ACC inhibitors on host cells was determined by visual inspection of cell lawns and neutral red viability assay.

## Cn1cnc(N)c2ncnc1-2 [3-methyladenine]
[1]; 3-methyladenine 5 mM, multiplicity of 0.01 pfu/cell
  inhibition of HCMV replication (relative infectious units in medium): has antiviral activities; also recorded: inhibits the replication of human cytomegalovirus
Class III PI(3)K
  inhibition of class III PI(3)K: inhibits class III PI(3)K

## O=C(c1c2ccccc2cc2ccccc12)N1CCC(N2CCC[C@@H](C(=O)N3CCOCC3)C2)CC1 [CP-640186]
[1]; as stated in the text for FIGS. 18 and 19, dose not given
  inhibition of HCMV replication: approximately 50 fold
[1]; [6]
  Fold inhibition of viral replication: 89.6 fold
  Viral yield: 16000 pfu/mL
Host cells
  toxicity on host cells by neutral red viability assay: indistinguishable from DMSO control

## CCOC(=O)C1(CCCCCCOc2ccc(Cl)cc2)CO1 (stereo not drawn) [Etomoxir]
[1]; Etomoxir 5 μM, AD169, multiplicity of infection 1.0, harvested 96 hours post infection
  reduction of HCMV viral replication: more than 1 log

## CC[C@H](C)C(=O)O[C@H]1C[C@@H](C)C=C2C=C[C@H](C)[C@H](CC[C@@H]3C[C@@H](O)CC(=O)O3)[C@H]21 [Lovastatin, lovastatin]
HBV
  production of infectious HBV particles: does not block production of infectious HBV particles
  secretion of HBV surface antigen, HBsAg: inhibits secretion of the HBV surface antigen
HCV replicon; Huh-7 cells
  inhibition of replication of HCV replicons: partially inhibit

## CCCCCCCCCCCCCCOc1ccc(C(=O)O)o1 [TOFA, 5-(tetradecyloxy)-2-furoic acid]
Dengue virus (DV)
  reduction in accumulation of extracellular viral RNA (DV): ~10 fold
[2]; TOFA 3 μg/mL
  reduction in extracellular HBV DNA: small but statistically significant reduction
[2]; TOFA 10 μg/mL (range ~3 to ~30-fold)
  reduction in production of extracellular HBV DNA: ~10 fold
[2]; TOFA 30 μg/mL, greater than 100-fold in some cases
  impairment of production of extracellular HBV DNA: greater than 10 fold
Host cell
  host cell toxicity by neutral red dye assay: does not increase host cell toxicity
[1]
  decrease in HCMV viral replication: roughly one
[1]; TOFA 20 μg/mL, MOI 3.0, GFP reporter virus, released virus only, 72 hours post infection
  decrease in HCMV viral replication: roughly two
[1]; [6]
  Fold inhibition of viral replication: 427.6 fold
  Viral yield: 7700 pfu/mL
[1]; [7]
  Fold inhibition of viral replication: 82499.0 fold
  Viral yield: 40 pfu/mL
HCMV; absence of indomethacin
  magnitude of the therapeutic effect on HCMV replication: ~10 fold
HCMV; presence of indomethacin
  magnitude of the therapeutic effect on HCMV replication: ~100 fold
[3]
  NADP+ levels in HCMV-infected cells: falling with TOFA treatment
  citrate concentration in HCMV-infected cells: yet greater increases in citrate concentration
  malonyl-CoA concentration in HCMV-infected cells: below the limit of detection; also recorded: blocked
Coxsackie B3 virus
  sensitivity of coxsackie B3 virus: insensitive
[4]
  reduction of the TOFA concentration required to reduce viral growth and/or replication by 10-fold: ≥ 2 fold
Huh7 ET cells
  host cell toxicity by neutral red dye: absence of host cell toxicity
[5]; rat, in vivo, 100 mg/kg/day
  adverse effects: no adverse effects are observed
[5]; rat, in vivo, 150 mg/kg/day
  teratogenicity: not teratogenic
[5]; rats, oral
  oral LD50: greater than 5,000 mg/kg
HCV RNA replicon; TOFA 10 μg/mL
  reduction in LUC activity: ~10 fold
HCV RNA replicon; TOFA 30 μg/mL, in some experiments
  reduction in LUC activity: ≥ 100 fold
West Nile virus (WNV)
  reduction in accumulation of extracellular viral RNA (WNV): ~10 fold
HCV replicon; TOFA 5 microg/ml, Huh-7 cells containing an HCV replicon
  inhibition of HCV replication: about 3 fold
